Consider 1 compound from patent publication US7176224B2, “Oxazolyl-aryloxyacetic acid derivatives and their use as PPAR agonists” (Eli Lilly and Company, priority 2000, dated 2007).

One assay deals with db/db mice. As to the kind of experiment: Evaluation of glucose levels in db/db mice. The class given is in vivo. The conditions noted are these: 30 mg/kg oral gavage daily for 7 days; 100% = glucose not differing from lean values. As for the experimental part: Five week old male diabetic (db/db) mice [C57BlKs/j-m +/+ Lepr(db), Jackson Laboratory, Bar Harbor, Me.] or lean littermates (DB/?) were housed 6 per cage (10″20″8″ with aspen chip bedding) with food (Purina 5015) and water available at all times. After an acclimation period of 2 weeks, animals were individually identified by ear notches, weighed, and bled via the tail vein for determination of initial glucose levels. Blood was collected (100 μl) from unfasted animals by wrapping each mouse in a towel, cutting the tip of the tail with a scalpel, and milking blood from the tail into a heparinized capillary tube (Fisher) balanced on the edge of the bench. Sample was discharged into a heparinized microtainer with gel separator (VWR) and retained on ice. Plasma was obtained after centrifugation at 4° C. and glucose measured immediately. Remaining plasma was frozen until the completion of the experiment, when glucose and triglycerides were assayed in all samples. […]
Glucose was measured colorimetrically using commercially purchased reagents (Sigma #315-500). […] The absorbance of the dye produced is linearly related to the analyte in the sample. […] Standards (Sigma #339-11, Sigma #16-11, and Sigma #CC0534 for glucose, triglycerides and total cholesterol, respectively), quality control plasma (Sigma # A2034), and samples (2 or 5 μl/well) were measured in duplicate using 200 μl of reagent. […]

The subject of the next assay is huPPARα. The assay can be described thus: Cotransfection assay in CV-1 cells, luciferase reporter. The conditions noted are these: GAL4 chimeric system, relative to PPARα agonist reference molecule. The class given is cell-based, human. As for the experimental part: […] binding (ABCD binding) was carried out using SPA technology with PPAR receptors. Tritium-labeled PPARα and PPARγ agonists were used as radioligands for generating displacement curves and IC50 values with compounds of the invention. Cotransfection assays were carried out in CV-1 cells. The reporter plasmid contained an acylCoA oxidase (AOX) PPRE and TK promoter upstream of the luciferase reporter cDNA. Appropriate PPARs and RXRα were constitutively expressed using plasmids containing the CMV promoter. For PPARα and […], interference by endogenous […] in CV-1 cells was an issue. In order to eliminate such interference, a GAL4 chimeric system was used in which the DNA binding domain of the transfected PPAR was replaced by that of GAL4, and the GAL4 response element was utilized in place of the AOX PPRE. Cotransfection efficacy was determined relative to PPARα agonist and […] reference molecules. Efficacies were determined by computer fit to a concentration-response curve, or in some cases at a single high concentration of agonist (10 μM). For binding or cotransfection studies with receptors other than PPARs, similar assays were carried out using appropriate ligands, receptors, reporter constructs, etc., for that particular receptor.
These studies were carried out to evaluate the ability of compounds of the invention to bind to and/or activate various nuclear transcription factors, particularly huPPARα (“hu” indicates “human”) and huPPARγ. These studies provide in vitro data concerning efficacy and selectivity of compounds of the invention. Furthermore, binding and cotransfection data for compounds of the invention were compared with corresponding data for marketed compounds that act on either huPPARα or huPPARγ.
Background: Reporter assays use an easily measured gene product as a stand-in for the process of interest.

In the case of `Cc1oc(-c2cccc(-c3ccc(F)cc3)c2)nc1CCOc1ccc(CC(C)(Oc2ccccc2)C(=O)O)cc1` (centres unmarked) [Example 4, 3-(4-{2-[2-(4′-Fluorobiphenyl-3-yl)-5-methyloxazol-4-yl]ethoxy}phenyl)-2-methyl-2-phenoxypropionic acid], the “Glucose Normalisation” value in the assay on db/db mice was 91%. In addition, the “huPPARα CTF Efficacy” value in the assay with huPPARα is 38%.
